Data reported in patent US4347319A, “Microbiological epoxidation process” (priority 1980, dated 1982).
Like-named read-outs stand apart in the source and are kept apart here.

Tests used:
Assay in all cases: Oxidation by washed cell suspensions of methane-grown cells
Type in all cases: cell-based
[1] = test system: Methylobacter chroococcum (CRL M6) NRRL B-11,214
Outline: (§1)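 Methane/air (1:1)-grown cells, 30 °C, 2 d; harvested, washed 2× in 0.15 M phosphate pH 7.0 + 0.002 M MgCl2. 2 mg cells/vial, gas phase substrate:O2 1:1 v/v, 30 °C, 300 rpm. GC-FID read-out over time.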

[2] = test system: Methylobacterium organophilum (CRL 26 R6) NRRL B-11,222
Outline: as §1

[3] = test system: Methylococcus capsulatus (CRL M1) NRRL B-11,219
Outline: as §1

[4] = test system: Methylosinus trichosporium (CRL 15 PM1) NRRL B-11,202
Outline: as §1

[5] = test system: Methylobacter bovis (CRL M1Y) NRRL B-11,216
Outline: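 Washed resting cells from methane-grown cultures oxidise the test substrate, supplied as a 1:1 mix with O2 or as 10 μl liquid, at 30 °C in pH 7.0 phosphate buffer; product formation is followed by GC.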

[6] = methane-grown washed cells, 30° C., methane to methanol, alkene to 1,2-epoxide
[7] = methane-grown cells, propane to acetone, butane to 2-butanone
[8] = growth substrate Methane, n-alkane to secondary alcohol
[9] = methane-grown cell-suspension, pH 7.0, 3° C.
[10] = methane-grown cell-suspension, pH 7.0, 30° C.
[11] = cells grown on methane at 40° C., 30° C. reaction temperature

CCC(C)O (centres unmarked) [2-Butanol]
Conversion Rate to Ketone, 2 hrs. [1]: 1 μmole/2 mg protein
Conversion Rate to Ketone, 20 hrs. [1]: 3 μmole/2 mg protein
Conversion Rate to Ketone, 2 hrs. [2]: 10 μmole/2 mg protein
Conversion Rate to Ketone, 2 hrs. [3]: 18 μmole/2 mg protein
Conversion Rate to Ketone, 20 hrs. [3]: 50 μmole/2 mg protein
Conversion Rate to Ketone, 2 hrs. [4]: 20 μmole/2 mg protein
Conversion Rate to Ketone, 2 hrs. [5]: 20 μmole/2 mg protein

C=CC=C [Butadiene]
Oxidative Conversion Rates [1, 6]: 1.5 μmole/hr/mg protein
Oxidative Conversion Rates [2, 6]: 2.8 μmole/hr/mg protein
Oxidative Conversion Rates [3, 6]: 4.4 μmole/hr/mg protein
Oxidative Conversion Rates [4, 6]: 4.2 μmole/hr/mg protein
Oxidative Conversion Rates [5, 6]: 1.27 μmole/hr/mg protein

CCCC [Butane]
Conversion Rate to Ketone [1]: 1 μmoles/hr/mg Protein
Conversion Rate [2]: 0.80 μmoles/hr/^5 mg. protein
Conversion Rate to Ketone [2]: 2.0 μmoles/hr/mg Protein
Conversion Rate to Ketone [3]: 2 μmoles/hr/mg Protein
Conversion Rate to 1-Butanol ([3]; pH 7): 0.4 μmoles/hr./mg./protein
Conversion Rate to 2-Butanol ([3]; pH 7): 0.5 μmoles/hr./mg./protein
Conversion Rate to 2-Butanone ([3]; pH 7): 0.2 μmoles/hr./mg./protein
Conversion Rate to n-butanol ([3]; pH 7): 0.2 μmoles/hr./mg./protein
Conversion Rate [4]: 1.2 μmoles/hr/^5 mg. protein
Conversion Rate to Ketone [4]: 1.0 μmoles/hr/mg Protein
Conversion Rate to Ketone [5]: 3 μmoles/hr/mg Protein

C [Methane]
Oxidative Conversion Rates [1]: 0.8
Oxidative Conversion Rates [2]: 0.7
Oxidative Conversion Rates [3]: 2.5
Conversion Rate to Methanol ([3]; pH 7): 2.5 μmoles/hr./mg./protein
Oxidative Conversion Rates [4]: 1.2
Oxidative Conversion Rates [5]: 1.5

CCC [Propane]
Conversion Rate to Ketone [1, 7]: 2.0 μmoles/hr/mg Protein
Conversion Rate [2, 8]: 1.4 μmoles/hr/^5 mg. protein
Conversion Rate to Ketone [2, 7]: 3.0 μmoles/hr/mg Protein
Conversion Rate to 2-Propanol [3, 9]: 0.7 μmoles/hr./mg./protein
Conversion Rate to Acetone [3, 9]: 0.3 μmoles/hr./mg./protein
Conversion Rate to 1-Propanol [3, 10]: 0.5 μmoles/hr./mg./protein
Conversion Rate to Propanol [3, 10]: 0.2 μmoles/hr./mg./protein
Conversion Rate to Ketone [3, 7]: 4.0 μmoles/hr/mg Protein
Conversion Rate [4, 8]: 2.1 μmoles/hr/^5 mg. protein
Conversion Rate to Ketone [4, 7]: 1.6 μmoles/hr/mg Protein
Conversion Rate to Ketone [5, 7]: 5.0 μmoles/hr/mg Protein

C=CC [Propylene]
Oxidative Conversion Rates [1, 6]: 1.2 μmole/hr/mg protein
Oxidative Conversion Rates [2, 6]: 2.5 μmole/hr/mg protein
conversion rate propylene to propylene oxide [3, 11]: 7.88 μ mole/2 hr./mg. protein
Oxidative Conversion Rates [3, 6]: 5.5 μmole/hr/mg protein
Oxidative Conversion Rates [4, 6]: 4.5 μmole/hr/mg protein
conversion rate propylene to propylene oxide [5, 11]: 0.27 μ mole/2 hr./mg protein
Oxidative Conversion Rates [5, 6]: 1.5 μmole/hr/mg protein
